Source: patent US20200383961A1, “TRIPLET THERAPIES OF HDAC INHIBITORS, PD-L1 AND/OR PD-1 INHIBITORS, AND CTLA-4 INHIBITORS” (HUYA Bioscience International, LLC, priority 2019, published 2020)
Read-outs that look alike come from different tables or passages of the source.

Experiments:
RR/PTCL = details: historical benchmark, cited from earlier work
[1] = Tolerability of compounds of formula I, nivolumab and their combination (adverse events); type: in vivo, human; details: for TRAE Anemia G1-2 / TRAE Anemia G3 / TRAE Anemia G4 / TRAE Diarrhea G1-2 / TRAE Diarrhea G3 / TRAE Diarrhea G4 / TRAE Fatigue G1-2 / TRAE Fatigue G3 / TRAE Fatigue G4 / TRAE Hypophospatemia G1-2 / TRAE Hypophospatemia G3 / TRAE Hypophospatemia G4 / TRAE Lymphocyte decrease G1-2 / TRAE Lymphocyte decrease G3 / TRAE Lymphocyte decrease G4 / TRAE Neutrophil decrease G1-2 / TRAE Neutrophil decrease G3 / TRAE Neutrophil decrease G4 / TRAE Platelet decrease G1-2 / TRAE Platelet decrease G3 / TRAE Platelet decrease G4 / TRAE WBC decrease G1-2 / TRAE WBC decrease G3 / TRAE WBC decrease G4: TRAE >= 5% frequency, by association
Protocol: The tolerability of the compounds of formula I, nivolumab, and a combination of the compounds of formula I and nivolumab were tested. The Phase 2 clinical dosage of 30 mg BIW of the compounds of formula I was administered.

[2] = system: relapsed or refractory peripheral T-cell lymphoma (RR/PTCL); experiment: Phase 2 monotherapy in relapsed or refractory peripheral T-cell lymphoma; type: in vivo, human
Protocol: The compounds of formula I were used as a monotherapy for relapsed or refractory peripheral T-cell lymphoma (“RR/PTCL”). A dosage of 40 mg biw was approved for this study. A summary of the results is found in Table 10. […] The time after prior treatment was 96 days (vs. 222 days for romidepsin P2 trial). […] The median PFS (months) was 7.6.

[3] = system: relapsed or refractory aggressive adult T-cell lymphoma (RR/ATL); experiment: Phase 2 monotherapy in relapsed or refractory aggressive adult T-cell lymphoma; type: in vivo, human; details: 20 evaluable, 40 mg biw monotherapy
Protocol: (§1) The compounds of formula I were used as a monotherapy for relapsed or refractory aggressive adult T-cell lymphoma (“RR/ATL”). A dosage of 40 mg biw was approved for this study. A summary of the results is found in Table 12. […] The time after prior treatment was 88 days (vs. 234 days for lenalidomide P2 trial). All patients had received mogamulizumab (“moga”) (lenalidomide ORR in moga patients was 18%).

RR/ATL [4] = experiment: Historical benchmarks for RR/ATL treatments; type: in vivo, human; details: Phase I, listed among benchmarks
Protocol: as §1

[5] = system: tumor micro-environment (TME); details: cited from earlier work
RR/ATL [6] = details: cited from earlier work; for ORR: historical benchmark, RR/ATL
[7] = 43 evaluable, 40 mg biw monotherapy
[8] = number of patients, 43 evaluable, 40 mg biw monotherapy
[9] = less frequent TRAEs associated with NIVO alone

Molecule: Nc1cc(F)ccc1NC(=O)c1ccc(CNC(=O)/C=C/c2cccnc2)cc1 [Epidaza]
- ORR (PMS) (RR/PTCL; value in brackets, PMS): 35%
- ORR (RR/PTCL): 28%

Molecule: O=c1[nH]cnc2c([C@@H]3N[C@H](CO)[C@@H](O)[C@H]3O)c[nH]c12 [Forodesine]
- ORR (RR/PTCL): 22%

Molecule: Nc1cc(F)ccc1NC(=O)c1ccc(CNC(=O)/C=C/c2cccnc2)cc1 [HBI-8000, N-(2-amino-4-fluorophenyl)-4-[[[(2E)-1-oxo-3-(3-pyridinyl)-2-propen-1-yl]amino]methyl]benzamide]
- TRAE Anemia G1-2 [1]: 14 (22) n (% of N)
- TRAE Anemia G3 [1]: 1 (2) n (% of N)
- TRAE Anemia G4 [1]: 0 n (% of N)
- TRAE Diarrhea G1-2 [1]: 0 n (% of N)
- TRAE Diarrhea G3 [1]: 0 n (% of N)
- TRAE Diarrhea G4 [1]: 0 n (% of N)
- TRAE Fatigue G1-2 [1]: 0 n (% of N)
- TRAE Fatigue G3 [1]: 0 n (% of N)
- TRAE Fatigue G4 [1]: 0 n (% of N)
- TRAE Hypophospatemia G1-2 [1]: 6 (10) n (% of N)
- TRAE Hypophospatemia G3 [1]: 4 (6) n (% of N)
- TRAE Hypophospatemia G4 [1]: 0 n (% of N)
- TRAE Lymphocyte decrease G1-2 [1]: 0 n (% of N)
- TRAE Lymphocyte decrease G3 [1]: 0 n (% of N)
- TRAE Lymphocyte decrease G4 [1]: 0 n (% of N)
- TRAE Neutrophil decrease G1-2 [1]: 8 (13) n (% of N)
- TRAE Neutrophil decrease G3 [1]: 5 (8) n (% of N)
- TRAE Neutrophil decrease G4 [1]: 1 (2) n (% of N)
- TRAE Platelet decrease G1-2 [1]: 23 (37) n (% of N)
- TRAE Platelet decrease G3 [1]: 3 (5) n (% of N)
- TRAE Platelet decrease G4 [1]: 0 n (% of N)
- TRAE WBC decrease G1-2 [1]: 11 (17) n (% of N)
- TRAE WBC decrease G3 [1]: 1 (2) n (% of N)
- TRAE WBC decrease G4 [1]: 0 n (% of N)
- share of TRAEs associated with the agent ([1]; among TRAEs, 63 subjects): 39%
- DCR [2, 7]: 74%
- ORR [2, 7]: 46%
- median PFS ([2]; estimated, PD date by investigator judgement, FIG. 7A): 7.6 months
- Complete Responses [2, 8]: 4
- Partial Responses [2, 8]: 16
- Stable Disease [2, 8]: 12
- DCR [3]: 60%
- ORR [3]: 40%
- Stable Disease ([3]; number of patients): 4
- Partial Responses ([3]; number of patients, all had received mogamulizumab): 8
- ORR (RR/ATL [4]): 75%
- PD-1 and PD-L1 expression ([5]; "cold" tumors): increases
- apoptosis scores and signatures ([5]; tumor cells): increasing
- conversion of M2 (suppressive) to M1 (antitumor) macrophages ([5]; tumor micro-environment): promotes
- influx of CD8+ T cells and NK cells ([5]; tumor micro-environment): increases
- number and activity of regulatory T cells (TREGs), myeloid-derived suppressor cells (MDSCs) ([5]; tumor micro-environment): reduces
- ratio of active CD8+ effector T cells to "exhausted" CD8 T cells ([5]; tumor micro-environment): increases

Molecule: Nc1cccc2c1CN(C1CCC(=O)NC1=O)C2=O (centres unmarked) [Lenalidomide]
- ORR (RR/ATL [6]): 42%
- ORR in moga patients (RR/ATL [6]; patients who had received mogamulizumab, lenalidomide P2 trial): 18%

Molecule: C#CCC(Cc1cnc2nc(N)nc(N)c2n1)c1ccc(C(=O)N[C@@H](CCC(=O)O)C(=O)O)cc1 (some centres unmarked) [Pralatrexate]
- ORR (RR/PTCL): 45%

Molecule: NIVO: fully human monoclonal antibody directed against PD-1
- TRAE Anemia G1-2 [1]: 0 n (% of N)
- TRAE Anemia G3 [1]: 0 n (% of N)
- TRAE Anemia G4 [1]: 0 n (% of N)
- TRAE Diarrhea G1-2 [1]: 4 (6) n (% of N)
- TRAE Diarrhea G3 [1]: 1 (2) n (% of N)
- TRAE Diarrhea G4 [1]: 0 n (% of N)
- TRAE Fatigue G1-2 [1]: 0 n (% of N)
- TRAE Fatigue G3 [1]: 0 n (% of N)
- TRAE Fatigue G4 [1]: 0 n (% of N)
- TRAE Hypophospatemia G1-2 [1]: 0 n (% of N)
- TRAE Hypophospatemia G3 [1]: 0 n (% of N)
- TRAE Hypophospatemia G4 [1]: 0 n (% of N)
- TRAE Lymphocyte decrease G1-2 [1]: 0 n (% of N)
- TRAE Lymphocyte decrease G3 [1]: 0 n (% of N)
- TRAE Lymphocyte decrease G4 [1]: 0 n (% of N)
- TRAE Neutrophil decrease G1-2 [1]: 0 n (% of N)
- TRAE Neutrophil decrease G3 [1]: 0 n (% of N)
- TRAE Neutrophil decrease G4 [1]: 0 n (% of N)
- TRAE Platelet decrease G1-2 [1]: 0 n (% of N)
- TRAE Platelet decrease G3 [1]: 0 n (% of N)
- TRAE Platelet decrease G4 [1]: 0 n (% of N)
- TRAE WBC decrease G1-2 [1]: 0 n (% of N)
- TRAE WBC decrease G3 [1]: 0 n (% of N)
- TRAE WBC decrease G4 [1]: 0 n (% of N)
- TRAE TSH increase [1, 9]: 5 n
- TRAE amylase increase [1, 9]: 4 n
- TRAE lipase increase [1, 9]: 6 n
- TRAE rash [1, 9]: 10 n

B1: Mogamulizumab: RR/ATL treatment, historical benchmark (antibody, chains of the INN, looked up, V domains shown)
VH: EVQLVESGGDLVQPGRSLRLSCAASGFIFSNYGMSWVRQAPGKGLEWVATISSASTYSYYPDSVKGRFTISRDNAKNSLYLQMNSLRVEDTALYYCGRHSDGNFAFGYWGQGTLVTVSS
VL: DVLMTQSPLSLPVTPGEPASISCRSSRNIVHINGDTYLEWYLQKPGQSPQLLIYKVSNRFSGVPDRFSGSGSGTDFTLKISRVEAEDVGVYYCFQGSLLPWTFGQGTKVEIK
- ORR (RR/ATL [6]): 50%
